Experimental data reported in patent US20250242064A1, “CXCR4-TARGETING COMPOUNDS, AND METHODS OF MAKING AND USING THE SAME” (PROVINCIAL HEALTH SERVICES AUTHORITY, priority 2022, published 2025).
Where a SMILES comes first, the peptide text is derived from it. Bridges are numbered along the chain shown (N, C = ends). Side-chain parts run from the residue outwards. [ ]: non-standard residue; d: D form. The star is where a group is joined. X6 = COc1ccc(CCCC(=O)NCCCC[C@H](NC(=O)[C@H](CS(=O)(=O)O)NC(=O)CN2CCN(CC(=O)O)CCN(CC(=O)O)CCN(CC(=O)O)CC2)C(=O)*)cc1; X7 = COc1ccc(CCCC(=O)NCCCC[C@H](NC(=O)CN2CCN(CC(=O)O)CCN(CC(=O)O)CCN(CC(=O)O)CC2)C(=O)*)cc1; 2Nal = N[C@@H](Cc1ccc2ccccc2c1)C(=O)O; Lys(iPr) = CC(C)NCCCC[C@H](N)C(=O)O; Cya = N[C@@H](CS(=O)(=O)O)C(=O)O

Biological target: CXCR4 (Homo sapiens, UniProt P61073)
Sequence (P61073 whole entry): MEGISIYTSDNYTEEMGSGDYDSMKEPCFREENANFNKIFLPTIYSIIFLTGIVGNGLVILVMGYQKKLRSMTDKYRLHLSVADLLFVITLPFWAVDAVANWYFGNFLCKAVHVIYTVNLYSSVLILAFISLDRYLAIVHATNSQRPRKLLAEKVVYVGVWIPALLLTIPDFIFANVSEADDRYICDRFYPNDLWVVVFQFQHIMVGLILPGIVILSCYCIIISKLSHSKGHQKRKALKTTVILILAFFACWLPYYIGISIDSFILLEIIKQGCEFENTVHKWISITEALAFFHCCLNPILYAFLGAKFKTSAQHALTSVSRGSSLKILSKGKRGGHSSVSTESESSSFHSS
Experiment: Competitive binding assay, [125I]SDF-1α displacement on CHO:CXCR4 cells
Parameters: expressed in transfected cells; host or cells: CHO:CXCR4 cells
Conditions: [125I]SDF-1α 0.01 nM, 1 h at 27° C., read-out: IC50 (nM), binding affinity for hCXCR4
Protocol: CHO:CXCR4 cells were seeded at a density of 1×10^5 cells/well in 24-well poly-D-lysine coated plates (Corning BioCoat) and incubated with [^125I]SDF-1α (0.01 nM, PerkinElmer) and competing nonradioactive ligands ([…]). The cells, radioligand, and competing peptides were incubated for 1 h at 27° C. with moderate shaking. Following the incubation period, the supernatant was aspirated, followed by three washes with 1 mL of ice-cold PBS. Cells were harvested with 200 μL of trypsin and counted on a y counter. Data were plotted in GraphPad Prism 7 to determine IC50 values (GraphPad Software, Inc., La Jolla, CA). The values are reported as mean±standard deviation.

SMILES: COc1ccc(CCCC(=O)NCCCC[C@H](NC(=O)CN2CCN(CC(=O)O)CCN(CC(=O)O)CCN(CC(=O)O)CC2)C(=O)N[C@@H](CS(=O)(=O)O)C(=O)NCCCC[C@@H]2NC(=O)CC[C@H](C(=O)N[C@@H](CCCCNC(C)C)C(N)=O)NC(=O)[C@@H](C)NC(=O)[C@H](Cc3ccc4ccccc4c3)NC(=O)[C@@H](CCCNC(=N)N)NC(=O)[C@H](CCCCNC(C)C)NC(=O)[C@H](Cc3ccc(O)cc3)NC2=O)cc1 [BL34L6] (K([Cya-X7])Y[Lys(iPr)][dR][2Nal][dA][dE][Lys(iPr)]-NH2; lactam N-7)
- IC50: 10 to 50 nM

SMILES: COc1ccc(CCCC(=O)NCCCC[C@H](NC(=O)[C@H](CS(=O)(=O)O)NC(=O)CN2CCN(CC(=O)O)CCN(CC(=O)O)CCN(CC(=O)O)CC2)C(=O)NCCCC[C@@H]2NC(=O)CC[C@H](C(=O)N[C@@H](CCCCNC(C)C)C(N)=O)NC(=O)[C@@H](C)NC(=O)[C@H](Cc3ccc4ccccc4c3)NC(=O)[C@@H](CCCNC(=N)N)NC(=O)[C@H](CCCCNC(C)C)NC(=O)[C@H](Cc3ccc(O)cc3)NC2=O)cc1 [BL34L7] (K(X6)Y[Lys(iPr)][dR][2Nal][dA][dE][Lys(iPr)]-NH2; lactam N-7)
- IC50: 10 to 50 nM
